Consider nine compounds from patent US9751885B2, “Cyclopropanamine compound and use thereof” (Takeda Pharmaceutical Company Limited, priority 2012, dated 2017).

Data set [1] relates to Gad1 H3K4me2 level in rat primary culture neurons. Description: Gad1 H3K4 methylation induction activity in rat primary culture neurons (ChIP-qPCR). Format: cell-based. The conditions noted are these: Rattus norvegicus, Neuron, 72 h, control without compound = 100%; for activity at 1 µM: read-out: Gad1 H3K4me2 induction activity (%), compound 1 μM, 3 days, rat primary culture neurons; for activity at 10 µM: read-out: Gad1 H3K4me2 induction activity (%), compound 10 μM, 3 days, rat primary culture neurons. How it is done: Gad1 H3K4 Methylation Induction Activity in Rat Primary Culture Neurons
Thereafter, the compound was added to final concentrations of 1 or 10 μM, and the cells were further cultured for 3 days. The culture supernatant was aspirated, ice-cold PBS was added, and the cell suspension was collected on ice using CELL SCRAPER (IWAKI). […] (750 μL). Furthermore, 0.3% NP40/cell lysis buffer 1 (750 μL) was added, and the cells were lysed by incubating for 5 min on ice.
Using the DNA obtained by the chromatin immunoprecipitation as a template, quantitative PCR of the Gad1 gene upstream genomic region was performed, and the measurement value was taken as the Gad1 H3K4me2 level. […] The Gad1 H3K4me2 induction by the compound was expressed by the H3K4me2 level when the compound was added, as compared to the H3K4me2 level of the control (without addition of the compound) as 100%.

In another data set the target is MAO-A enzyme (Homo sapiens (Human), UniProt P21397). Description: Measurement of MAO-A inhibitory activity (MAO-Glo Assay). Format: biochemical.
Sequence of MAO-A enzyme (P21397 whole entry): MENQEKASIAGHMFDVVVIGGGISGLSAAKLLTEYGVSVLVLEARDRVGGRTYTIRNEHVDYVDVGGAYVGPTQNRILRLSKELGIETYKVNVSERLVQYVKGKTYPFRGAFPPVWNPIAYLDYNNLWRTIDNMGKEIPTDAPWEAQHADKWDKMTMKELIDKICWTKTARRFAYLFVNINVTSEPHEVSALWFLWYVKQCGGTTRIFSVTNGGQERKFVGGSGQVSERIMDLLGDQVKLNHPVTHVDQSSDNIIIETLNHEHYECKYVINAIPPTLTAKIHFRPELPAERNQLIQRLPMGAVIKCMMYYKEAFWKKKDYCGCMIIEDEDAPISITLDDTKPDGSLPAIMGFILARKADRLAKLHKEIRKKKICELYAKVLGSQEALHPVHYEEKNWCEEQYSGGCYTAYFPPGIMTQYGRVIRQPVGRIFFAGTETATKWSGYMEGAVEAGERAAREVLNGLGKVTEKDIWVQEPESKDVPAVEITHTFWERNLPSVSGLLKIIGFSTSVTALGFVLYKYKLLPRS
In a further data set the target is MAO-B enzyme (Homo sapiens (Human), UniProt P27338). Description: Measurement of MAO-B inhibitory activity (MAO-Glo Assay).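 Further: luminescence read-out, compound preincubated 10 min with enzyme then reacted 60 min at room temperature, inhibition relative to enzyme reaction without compound, blank lacking enzyme and compound.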 The conditions noted are these: read-out: MAO-B IC50 value.
Sequence of MAO-B enzyme (P27338 whole entry): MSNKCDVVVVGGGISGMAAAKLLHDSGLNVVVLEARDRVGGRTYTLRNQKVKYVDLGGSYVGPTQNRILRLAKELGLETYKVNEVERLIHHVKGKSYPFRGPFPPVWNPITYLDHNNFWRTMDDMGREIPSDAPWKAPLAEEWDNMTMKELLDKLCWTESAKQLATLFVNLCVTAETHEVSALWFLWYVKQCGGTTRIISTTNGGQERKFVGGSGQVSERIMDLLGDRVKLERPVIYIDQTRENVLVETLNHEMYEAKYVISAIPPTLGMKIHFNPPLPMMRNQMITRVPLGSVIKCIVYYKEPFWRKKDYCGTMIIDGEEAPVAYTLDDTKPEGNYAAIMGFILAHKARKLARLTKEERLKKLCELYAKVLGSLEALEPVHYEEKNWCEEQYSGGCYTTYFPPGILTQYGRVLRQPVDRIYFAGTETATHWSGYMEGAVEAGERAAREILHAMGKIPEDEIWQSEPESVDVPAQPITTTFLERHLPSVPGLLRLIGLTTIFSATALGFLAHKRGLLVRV
Data set [2] can be described thus: Evaluation of hippocampal distribution in mouse. It counts as in vivo. The conditions noted are these: male ICR mice, 10 mg/kg oral. In outline: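 Male ICR mice dosed orally at 10 mg/kg as suspension in 0.5% methylcellulose/0.02% citric acid/water. Plasma and hippocampus sampled together at 0.5, 1 or 1.5 h; LC/MS/MS concentrations gave hippocampus/plasma ratio.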

Data set [3] has as its system white blood cell number, red blood cell number, platelet number. The experiment in a line: Evaluation of blood cell number in mouse. It counts as in vivo. The conditions noted are these: oral, Day 2 after administration. In short, it runs like this:
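Male ICR mice dosed orally at 1, 10, 50 or 100 mg/kg (suspension in 0.5% methylcellulose/0.02% citric acid/water); whole blood collected on Day 2. White cell, red cell and platelet counts per unit volume by automated haematology analyser, expressed as % of mean of untreated control group.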

A further data set addresses human LSD1(172-833) (Homo sapiens (Human), UniProt O60341). Description: Measurement of LSD1 inhibitory activity (time-resolved fluorescence, biotin-histone H3 mono methylated K4 peptide). It counts as biochemical. In outline: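 Remaining signal detected by TR-FRET after 60 min with europium anti-histone H3 antibody and streptavidin-XL665 in potassium fluoride/0.1% BSA.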

Where [4] appears, read: hippocampus, 0.5 hr after administration, read-out: hippocampus concentration (mean).
Where [5] appears, read: plasma, 0.5 hr after administration, read-out: plasma concentration (mean).
Setting [6] is: hippocampus, 1 hr after administration, read-out: hippocampus concentration (mean).
[7] abbreviates: plasma, 1 hr after administration, read-out: plasma concentration (mean).

Counter-ions that a name gives are not always drawn. Like-named read-outs stand apart in the source and are kept apart here. Bounds are passed on as bounds.

Protocol for MAO-A enzyme: The MAO-A inhibitory activity evaluation described below followed the protocol of MAO-Glo (registered trademark) Assay of Promega KK.
A test compound dissolved in 4% DMSO was added by 12.5 μL to 25 μL reaction solution (100 mM HEPES (pH 7.5), 5% glycerol) containing 400 ng of MAO-A enzyme (Sigma-Aldrich Co. LLC.), and the mixture was reacted at room temperature for 10 min. […] After reaction at room temperature for 60 min, Luciferine detection reagent (Promega KK) (50 μL) was added to terminate the reaction. After reaction at room temperature for min with stirring, the luminescence was measured by Envision (PerkinElmer). The MAO-A inhibitory rate (%) of the test compound was calculated by the following formula. inhibitory rate(%)=(1−(test compound count−blank)÷(control−blank))×100
The count of the MAO-A enzyme reaction mixture under compound non-addition conditions is indicated as control, and the count under compound non-addition and MAO-A enzyme non-addition conditions is indicated as blank.

As for `Cc1nnc(NC(=O)c2ccc(C)c([C@@H]3C[C@H]3NC3CCOCC3)c2)s1` (relative stereo) [Example 184, 4-methyl-N-(5-methyl-1,3,4-thiadiazol-2-yl)-3-(trans-2-(tetrahydro-2H-pyran-4-ylamino)cyclopropyl)benzamide dihydrochloride], in data set [1], the activity at 1 µM came out at 136% and the activity at 10 µM came out at 122%.
With `Cc1ncc(NC(=O)c2cccc([C@@H]3C[C@H]3NCC3CC3)c2)s1` (relative stereo) [Example 79, 3-(trans-2-((cyclopropylmethyl)amino)cyclopropyl)-N-(2-methyl-1,3-thiazol-5-yl)benzamide dihydrochloride], the IC50 against MAO-A enzyme was > 10 µM; at MAO-B enzyme, > 10 µM; against human LSD1(172-833), < 0.1 µM. For the same compound, the concentration at 0.5 h amounted to 569 ng/g in data set [2] (setting [4]) and 759 ng/mL in data set [2] (setting [5]). For the same compound, the “platelet number, percentage of compound administration group compared to control group, mean” value (from here on “platelet number, percentage”) in data set [3] (10 mg/kg) was determined as 92.4%; in data set [3] (100 mg/kg), 92.8%. The entries for the “red blood cell number, percentage of compound administration group compared to control group, mean” value (“red blood cell number, percentage” below) in data set [3] (10 mg/kg) and in data set [3] (100 mg/kg) were 101.1% and 101.6%, respectively. In addition, the “white blood cell number, percentage of compound administration group compared to control group, mean” value (“white blood cell number, percentage” for short) in data set [3] (10 mg/kg) is recorded as 122.4%; in data set [3] (100 mg/kg) it was 96.3%.
On to `Cn1cc(NC(=O)c2ccc(F)c([C@@H]3C[C@H]3NCC3CC3)c2)cn1` (relative stereo) [Example 237, 3-(trans-2-((cyclopropylmethyl)amino)cyclopropyl)-4-fluoro-N-(1-methyl-1H-pyrazol-4-yl)benzamide dihydrochloride], for which the concentration for half-maximal inhibition (IC50) against MAO-A enzyme was > 10 µM; at MAO-B enzyme, > 10 µM; against human LSD1(172-833), < 0.1 µM. In addition, the concentration at 0.5 h in data set [2] (setting [4]) stood at 237 ng/g; in data set [2] (setting [5]) it was 523 ng/mL. In addition, the “platelet number, percentage” value was 90.3% in data set [3] (10 mg/kg) and 91.9% in data set [3] (100 mg/kg). In addition, the “red blood cell number, percentage” value in data set [3] (10 mg/kg) was determined as 98.8%; in data set [3] (100 mg/kg) it was 96.5%. In addition, the figures for the “white blood cell number, percentage” value in data set [3] (10 mg/kg) and in data set [3] (100 mg/kg) were 83.9% and 86.7%, respectively.
Take `O=C(Nc1cnn(CC2CC2)c1)c1cccc([C@@H]2C[C@H]2NCC2CCOCC2)c1` (relative stereo) [Example 87, N-(1-(cyclopropylmethyl)-1H-pyrazol-4-yl)-3-(trans-2-((tetrahydro-2H-pyran-4-ylmethyl)amino)cyclopropyl)benzamide dihydrochloride]: the values for the IC50 against MAO-A enzyme, on MAO-B enzyme and on human LSD1(172-833) were > 10 µM, > 10 µM and < 0.1 µM, respectively. For the same compound, the concentration at 1 h in data set [2] (setting [6]) was 43 ng/g; in data set [2] (setting [7]), 251 ng/mL. Also, the “platelet number, percentage” value in data set [3] (10 mg/kg) came out at 111.7%; in data set [3] (100 mg/kg) it was 105.2%. The “red blood cell number, percentage” value in data set [3] (10 mg/kg) was found to be 96.8%; in data set [3] (100 mg/kg), 100.7%. For the same compound, the “white blood cell number, percentage” value in data set [3] (10 mg/kg) was found to be 94.6%; in data set [3] (100 mg/kg) it was 101.1%.
For the compound `O=C(Nc1ccc(N2CCCC2=O)cc1)c1cccc([C@@H]2C[C@H]2NCC2CC2)c1` (relative stereo) [Example 82, 3-(trans-2-((cyclopropylmethyl)amino)cyclopropyl)-N-(4-(2-oxopyrrolidin-1-yl)phenyl)benzamide hydrochloride], the results for the IC50 against MAO-A enzyme, on MAO-B enzyme and on human LSD1(172-833) were > 10 µM, > 10 µM and < 0.1 µM, respectively. Further, the concentration at 0.5 h in data set [2] (setting [4]) came to 58 ng/g; in data set [2] (setting [5]) it was 5610 ng/mL. For the same compound, the “platelet number, percentage” value turned out to be 104.6% in data set [3] (10 mg/kg) and 94.6% in data set [3] (100 mg/kg). Further, the “red blood cell number, percentage” value in data set [3] (10 mg/kg) worked out at 100.5%; in data set [3] (100 mg/kg), 99.9%. Moreover, the “white blood cell number, percentage” value was found to be 81.2% in data set [3] (10 mg/kg) and 135.5% in data set [3] (100 mg/kg).
`Cn1cc(NC(=O)c2cccc([C@@H]3C[C@H]3NCC(C)(C)C)c2)cn1` (relative stereo) [Example 155, 3-(trans-2-((2,2-dimethylpropyl)amino)cyclopropyl)-N-(1-methyl-1H-pyrazol-4-yl)benzamide dihydrochloride]: in data set [1], the activity at 1 µM was 104% and the activity at 10 µM amounted to 106%.
As to `O=C(NC1CC(F)(F)C1)c1ccc(F)c([C@@H]2C[C@H]2NCC2CC2)c1` (relative stereo) [Example 240, 3-(trans-2-((cyclopropylmethyl)amino)cyclopropyl)-N-(3,3-difluorocyclobutyl)-4-fluorobenzamide hydrochloride], the half-maximal inhibitory concentration (IC50) was > 10 µM against MAO-A enzyme, > 10 µM at MAO-B enzyme and < 0.1 µM on human LSD1(172-833). The concentration at 0.5 h in data set [2] (setting [4]) was 329 ng/g; in data set [2] (setting [5]) it was 247 ng/mL. The Kp at 0.5 h in data set [2] (hippocampus/plasma, 0.5 hr after administration, read-out: hippocampus/plasma concentration ratio (mean)) turned out to be 1.31. Besides, the “platelet number, percentage” value was determined as 90.7% in data set [3] (10 mg/kg) and 94.7% in data set [3] (100 mg/kg). For the same compound, the “red blood cell number, percentage” value in data set [3] (10 mg/kg) is 95.5%; in data set [3] (100 mg/kg), 98.7%. The “white blood cell number, percentage” value in data set [3] (10 mg/kg) was determined as 82.3%; in data set [3] (100 mg/kg), 109.4%.
For `Cc1nnc(NC(=O)c2cccc([C@@H]3C[C@H]3NC3CCC(F)(F)CC3)c2)s1` (relative stereo) [Example 166, 3-(trans-2-((4,4-difluorocyclohexyl)amino)cyclopropyl)-N-(5-methyl-1,3,4-thiadiazol-2-yl)benzamide dihydrochloride], in data set [1], the activity at 1 µM was 98% and the activity at 10 µM came out at 147%.
On to `Cc1cc(NC(=O)c2cccc([C@@H]3C[C@H]3NCC3CCOCC3)c2)no1` (relative stereo) [Example 231, N-(5-methyl-1,2-oxazol-3-yl)-3-(trans-2-((tetrahydro-2H-pyran-4-ylmethyl)amino)cyclopropyl)benzamide], for which the concentration for half-maximal inhibition (IC50) was > 10 µM against MAO-A enzyme, > 10 µM on MAO-B enzyme and < 0.1 µM at human LSD1(172-833). In addition, the results for the concentration at 1 h in data set [2] (setting [6]) and in data set [2] (setting [7]) were 527 ng/g and 117 ng/mL, respectively. The Kp at 1 h in data set [2] (hippocampus/plasma, 1 hr after administration, read-out: hippocampus/plasma concentration ratio (mean)) worked out at 4.5. The “platelet number, percentage” value in data set [3] (10 mg/kg) turned out to be 93.7%; in data set [3] (100 mg/kg), 90.4%. Besides, the “red blood cell number, percentage” value stood at 99.7% in data set [3] (10 mg/kg) and 95.0% in data set [3] (100 mg/kg). Moreover, the “white blood cell number, percentage” value was determined as 75.7% in data set [3] (10 mg/kg) and 77.1% in data set [3] (100 mg/kg).
